Columns and labels:
Type in all cases: physicochemical
[1] = Accelerated storage stability of Compound A in liquid compositions, 2 weeks at 54° C. (HPLC)
Protocol: The test compositions were prepared in a manner similar to that described in Example 1 using one or more of Compound A, prothioconazole, pyraclostrobin, benzyl acetate, and AMD 810, and a third solvent chosen from cyclohexanone, acetophenone, 2-heptanone, 2-heptanal, oleyl alcohol or 2-ethylhexanol.

[2] = Approximate (relative) solubility of active ingredients in organic solvents at ambient temperature; details: 0.2 g Compound A mixed with 1.38 g cyclohexanone
Protocol: The approximate solubility of Compound A was determined by mixing a known mass of the active ingredient with an increasing mass of each solvent at ambient temperature. […] The solubility of Compound A in the solvents used in this screening procedure was generally classified within the following concentration ranges: […]

[3] = Solubility of Compound A and prothioconazole in benzyl acetate/AMD810 blends at 10° C. (HPLC); details: both actives saturated
Protocol: A study of the Compound A and prothioconazole solubility in blends of benzyl acetate/AMD810 was conducted. To each solvent blend both actives were added until each was saturated and the resulting mixtures were then stored at 10° C. until equilibrium was obtained. Aliquots of the supernatant layer were taken from each sample, filtered (0.45 μm mesh) and analyzed by HPLC to determine the solution concentration of each active in the blends.

## COc1ccnc(C(=O)N[C@H]2COC(=O)[C@H](Cc3ccccc3)[C@@H](OC(=O)C(C)C)[C@H](C)OC2=O)c1OCOC(=O)C(C)C [Compound A, propanoic acid, 2-methyl-, [[4-methoxy-2-[[[(3S,7R,8R,9S)-9-methyl-8-(2-methyl-1-oxopropoxy)-2,6-dioxo-7-(phenylmethyl)-1,5-dioxonan-3-yl]amino]carbonyl]-3-pyridinyl]oxy]methyl ester]
[1]; wt %: Compound A 3.4, AMD 810 96.0, third solvent none
  Compound A after Storage (% retention): 49^ % retention
[1]; wt %: Compound A 4.9, benzyl acetate 94.1, third solvent none
  Compound A after Storage (% retention): 85^ % retention
[1]; wt %: Compound A 12.0, cyclohexanone 85.7
  Compound A after Storage (% retention): 96^ % retention
[2]
  clear solution comprising Compound A: 12.6 % w/w
[3]; benzyl acetate to AMD810 in blend 0 wt %
  Compound A Solubility at 10° C.: 3.3 % w/w
[3]; benzyl acetate to AMD810 in blend 20 wt %
  Compound A Solubility at 10° C.: 4.3 % w/w
[3]; benzyl acetate to AMD810 in blend 40 wt %
  Compound A Solubility at 10° C.: 6.5 % w/w
[3]; benzyl acetate to AMD810 in blend 60 wt %
  Compound A Solubility at 10° C.: 11.0 % w/w
[3]; benzyl acetate to AMD810 in blend 80 wt %
  Compound A Solubility at 10° C.: 12.0 % w/w
